Values quoted from earlier work as cited in patent US10759826B2, “15β-substituted estrone derivatives as selective inhibitors of 17β-hydroxysteroid-dehydrogenases, method of preparation and use thereof” (USTAV ORGANICKE CHEMIE A BIOCHEMIE AV CR, V.V.I., priority 2016, dated 2020).

System: T-47D ER+ cells
Details: Laplante et al. 2008; cited from earlier work

## C[C@]12CC[C@@H]3c4ccc(O)cc4CC[C@H]3[C@@H]1C[C@H](Cc1cccc(C(N)=O)c1)[C@@H]2O [Compound E2B, 16β-m-carbamoylbenzyl-E2]
  reduction of proliferation induced by the physiological level of E1: 62%
